Converted amounts (≈) assume the structure as drawn. Read-outs that look alike come from different tables or passages of the source.
Legend:
[1] = pH 7.3 (physiological pH); cited from earlier work
BChE [2] = target: T1, BChE (Homo sapiens, UniProt P06276); conditions: previous study; cited from earlier work
eAChE = conditions: read-out: IC50 against eAChE, cited from earlier work
rat cerebral cortex AChE = conditions: read-out: IC50, rat cerebral cortex AChE; cited from earlier work
AChE [3] = conditions: cited from earlier work
BChE [4] = target: T1, BChE; test: BChE inhibition by IPA; format: biochemical; conditions: data not shown
AChE [5] = test: AChE inhibition by IPA; format: biochemical; conditions: data not shown
[6] = ABTS radical scavenging activity; conditions: read-out: IC50, ABTS radical scavenging
[7] = DPPH radical scavenging activity; conditions: read-out: IC50, DPPH radical scavenging
FRAP activity = conditions: CUR-IPA 50 to 250 μM; ascorbic acid 2 to 10 μM

T1 sequence (P06276 29-602): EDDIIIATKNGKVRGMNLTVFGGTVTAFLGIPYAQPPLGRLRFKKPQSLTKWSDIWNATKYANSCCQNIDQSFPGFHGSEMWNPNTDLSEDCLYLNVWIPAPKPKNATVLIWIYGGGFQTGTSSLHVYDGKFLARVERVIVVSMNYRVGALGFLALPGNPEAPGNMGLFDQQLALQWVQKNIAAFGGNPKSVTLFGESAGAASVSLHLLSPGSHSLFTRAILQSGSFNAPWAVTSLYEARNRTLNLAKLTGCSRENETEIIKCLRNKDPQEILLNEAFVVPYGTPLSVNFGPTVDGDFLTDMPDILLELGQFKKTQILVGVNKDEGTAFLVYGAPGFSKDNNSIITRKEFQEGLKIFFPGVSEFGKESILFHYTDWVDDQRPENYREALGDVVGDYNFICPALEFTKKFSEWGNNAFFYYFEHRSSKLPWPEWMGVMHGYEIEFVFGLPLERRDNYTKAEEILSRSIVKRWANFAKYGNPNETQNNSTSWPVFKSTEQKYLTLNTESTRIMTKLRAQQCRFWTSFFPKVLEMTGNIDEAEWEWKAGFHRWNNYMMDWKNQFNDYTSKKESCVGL

Q: With `COc1cc(C=CC(=O)CC(=O)C=Cc2ccc(O)c(OC)c2)ccc1O` [CUR, 1,7-bis(4-hydroxy-3-methoxyphenyl)-1,6-heptadiene-3,5-dione] as the molecule, how does the solubility [1] read?
A: Its solubility is 0.4 µg/mL (≈ 1.09 µM).

Q: What about the “inhibition against BChE” value (BChE [2]) of the same molecule?
A: Its value is “did not show inhibition”.

Q: What about the IC50 (eAChE; another study) of the same molecule?
A: Its IC50 is 67.7 µM.

Q: And the IC50 (eAChE; previous study)?
A: Its IC50 is 51.8 µM.

Q: What about the IC50 (rat cerebral cortex AChE) of the same molecule?
A: Its IC50 is 10 µM.

Q: What about the “effect on AChE activity in the ex vivo model” value (AChE [3]) of the same molecule?
A: Its value is “did not affect AChE activity”.

Q: With `O=C(O)CCc1c[nH]c2ccccc12` [IPA, Indole-3-propionic acid] as the molecule, how does the “concentration showing inhibition against BChE” value (BChE [4]) read?
A: The value was ≥ 500 µM.

Q: And the “concentration showing inhibition against AChE” value (AChE [5])?
A: Its value is ≥ 500 µM.

Q: With `O=C1O[C@H]([C@@H](O)CO)C(O)=C1O` [ascorbic acid] as the molecule, how does the IC50 [6] read?
A: Its IC50 is 15.8 µM.

Q: What about the IC50 [7] of the same molecule?
A: Its IC50 is 34.5 µM.

Q: And the FRAP activity (FRAP activity)?
A: The FRAP activity was “present linearly”.

— article PMC11904713 (ACS Omega, 2025)
